Here are results for eight molecules from US10875829B1, “Azetidine derivatives useful as modulators of cortical catecholaminergic neurotransmission” (Integrative Research Laboratories Sweden AB, priority 2016, dated 2020).

Structures can show the parent of a compound that is named as a salt. Marks after values point to notes of the source that are not given here.

In test [1] the target is Human Dopamine Transporter (DAT (h)) (Homo sapiens (Human), UniProt Q01959). The test is described as follows: Radioligand binding assay, human dopamine transporter ([3H]BTCP). The conditions noted are these: for inhibition at 10 µM: 2 h, single concentration 1.0 E-5 M, duplicate, mean values; for IC50: dose-response curves. The procedure: (The measurement was performed as described in Pristuba, Z. B., Wilson, J. M., Hoffman, B. J., Kish, S. J. and Nisnik, H. B. (1994), Pharmacological heterogeneity of the cloned and native human dopamine transporter: disassociation of [3H]WIN 35,428 and [3H]GBR 12,935 binding, Mol. Pharmacol., 45: 125)
Human Dopamine Transporter (DAT (h)), sequence (Q01959 whole entry): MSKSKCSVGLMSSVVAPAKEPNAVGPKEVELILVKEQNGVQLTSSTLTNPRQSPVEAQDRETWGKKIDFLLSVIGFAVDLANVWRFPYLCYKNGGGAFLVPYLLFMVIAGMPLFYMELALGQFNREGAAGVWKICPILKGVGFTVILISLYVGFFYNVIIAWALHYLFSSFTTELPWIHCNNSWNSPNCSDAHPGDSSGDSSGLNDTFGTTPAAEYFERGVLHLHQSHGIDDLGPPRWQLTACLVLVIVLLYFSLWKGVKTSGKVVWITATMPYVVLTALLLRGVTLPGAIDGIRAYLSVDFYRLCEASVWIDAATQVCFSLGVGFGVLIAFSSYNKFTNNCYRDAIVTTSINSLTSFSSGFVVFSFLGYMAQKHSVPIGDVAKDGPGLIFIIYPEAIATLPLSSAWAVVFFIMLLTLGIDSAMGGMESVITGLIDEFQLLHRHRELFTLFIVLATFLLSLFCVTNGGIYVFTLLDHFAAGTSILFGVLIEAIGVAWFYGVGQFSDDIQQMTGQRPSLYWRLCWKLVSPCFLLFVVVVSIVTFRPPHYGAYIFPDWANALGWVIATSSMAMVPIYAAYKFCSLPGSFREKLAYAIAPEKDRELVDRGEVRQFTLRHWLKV
Cell membrane homogenates (20 μg protein) are incubated for 120 min at 4° C. with 4 nM
[3H]BTCP in the absence or presence of the test compound in a buffer containing 50 mM Tris-HCl (pH 7.4) and 100 mM NaCl. Nonspecific binding is determined in the presence of 10 μM BTCP. Following incubation, the samples are filtered rapidly under vacuum through glass fiber filters (GF/B, Packard) presoaked with 0.3% PEI and rinsed several times with ice-cold 50 mM Tris-HCl using a 96-sample cell harvester (Unifilter, Packard). The filters are dried then counted for radioactivity in a scintillation counter (Topcount, Packard) using a scintillation cocktail (Microscint 0, Packard).
The results are expressed as a percent inhibition of the control radioligand specific binding.
[…] Reported values are mean values.

In test [2] the test system is DOPAC. The test is described as follows: In vivo neurochemistry: tissue levels of DOPAC in brain regions. Also on record: species or system rats. The conditions noted are these: 100 μmol/kg s.c., 65 min before sacrifice, control saline, n=5. The source says:
The change in turnover of dopamine in the terminal areas of the ascending dopaminergic projections of the mammalian brain can be illustrated by measuring of changes in biochemical indices in the brain e.g. changes in concentrations of dopamine metabolites such as 3,4-dihydroxyphenyl-acetic acid (DOPAC) in the striatum and frontal cortex.
The measurement of the tissue content of DOPAC is well established in the field of research since the 1960's. In short, male Sprague-Dawley rats are administered the test compound 60 minutes prior to decapitation. The brain is rapidly taken out and dissected. The striatum is rapidly frozen and subsequently quantitatively analyzed with respect to its content of DOPAC by means of HPLC and electrochemical detection. The number of animals used for each test compound/vehicle is 5/group.
After the behavioural activity sessions, the rats were decapitated and their brains rapidly taken out and put on an ice-cold petri-dish. The brains were dissected into a right and a left part of which the right part was analyzed for neurochemicals with HPLC and the left part was analyzed for gene expression. The limbic forebrain, the striatum, the frontal cortex, the hippocampus and the remaining hemispheral parts of each rat were dissected and frozen. Each brain part was subsequently analyzed with respect to its content of monoamines and their metabolites.
The monoamine transmitter substances (NA (noradrenaline), DA (dopamine), 5-HT (serotonin)) as well as one corresponding acid, (DOPAC (3,4-dihydroxyphenylacetic acid), were quantified in brain tissue homogenates by HPLC separations and electrochemical detection.
The analytical method is based on two chromatographic separations dedicated for amines or acids. Two chromatographic systems share a common auto injector with a 10-port valve and two sample loops for simultaneous injection on the two systems. Both systems are equipped with a reverse phase column (Luna C18 (2), dp 3 μm, 50*2 mm i.d., Phenomenex) and electrochemical detection is accomplished at two potentials on glassy carbon electrodes (MF-1000, Bioanalytical Systems, Inc.). The column effluent is passed via a T-connection to the detection cell or to a waste outlet. This is accomplished by two solenoid valves, which block either the waste or detector outlet. By preventing the chromatographic front from reaching the detector, better detection conditions are achieved. The aqueous mobile phase (0.4 ml/min) for the acid system contains citric acid 14 mM, sodium citrate 10 mM, Methanol 15% (v/v) and EDTA 0.1 mM. Detection potentials relative to Ag/AgCl reference are 0.45 and 0.60V. […] Detection potentials relative to Ag/AgCl reference are 0.45 and 0.65V.
Each compound or saline solution (control) indicated in the above table was administered subcutaneously (s.c.) 65 min before sacrificing the animals. DOPAC results are presented as percent of control means±SEM (standard error of the mean). Statistical significance was assessed using Student's t-test (2 tailed) vs controls. * denotes p<0.05, ** p<0.01, *** p<0.001, n=5.

Test [3] has as its system non-pre-treated Sprague-Dawley rats. The experiment in a line: Locomotor activity in drug-naïve rats (behavioural activity, distance traveled 0-60 min). Type of test: in vivo. The conditions noted are these: for locomotor activity: recorded for 60 minutes, control saline, n=5. The procedure:
The effect of compounds in the present disclosure on locomotor activity in drug-naïve rats was also investigated. The animals were placed in the motility meters immediately after drug administration and locomotor activity was recorded for 60 minutes (counts/60 min±SEM). The results are presented as percent of control.
Behavioural activity was measured using eight Digiscan activity monitors (RXYZM (16) TAO, Omnitech Electronics, Columbus, Ohio, USA), connected to an Omnitech Digiscan analyzer and an Apple Macintosh computer equipped with a digital interface board (NB D10-24, National Instruments, USA). Each activity monitor consisted of a quadratic metal frame (W×L=40 cm×40 cm) equipped with photo beam sensors. During measurements of behavioural activity, a rat was put in a transparent acrylic cage (W×L×H, 40×40×30 cm) which in turn was placed in the activity monitor. Each activity monitor was equipped with three rows of infrared photo beam sensors, each row consisting of 16 sensors. Two rows were placed along the front and the side of the floor of the cage, at a 90° angle, and the third row was placed 10 cm above the floor to measure vertical activity. Photo beam sensors were spaced 2.5 cm apart. Each activity monitor was fitted in an identical sound and light attenuating box containing a weak house light and a fan.
The computer software was written using object oriented programming (LabVIEW™, National instruments, Austin, Tex., USA).
Behavioural data from each activity monitor, representing the position (horizontal center of gravity and vertical activity) of the animal at each time, were recorded at a sampling frequency of 25 Hz and collected using a custom written LABView™ application. The data from each recording session were stored and analyzed with respect to distance traveled. Each behavioural recording session lasted 60 min, starting approximately 5 min after the injection of test compound.
Compounds disclosed herein have been tested for effects on spontaneous locomotor activity in non-pre-treated Sprague-Dawley rats (based on accumulated distance traveled 0-60 min post dosing), and with doses up to 100 μmol/kg (s.c.).
The animals were placed in the motility meters immediately after drug administration and locomotor activity was recorded for 60 minutes (counts/60 min). Results are presented as percent of control means. Statistical significance was assessed using Student's t-test (2 tailed) vs controls. * denotes p<0.05, ** p<0.01, *** p<0.001, n=5.

Where [4] appears, read: at the highest tested dose (100 μmol/kg s.c.).

Regarding `Fc1cccc(OC2CNC2)c1F` [Example 1A, 3-(2,3-difluorophenoxy)azetidine hydrochloric acid salt], in test [1], at 10 µM the inhibition was 49%. Besides, the IC50 in test [1] turned out to be 21 µM. For the same molecule, in test [2], the “DOPAC cortex ± SEM” value is listed as 300 ± 26*** % of control means. Besides, in test [2], the “DOPAC striatum ± SEM” value is 53 ± 2*** % of control means. The locomotor activity in test [3] (11 μmol/kg s.c.) is 135 ± 17 % of control means; in test [3] (33 μmol/kg s.c.), 163 ± 17* % of control means; in test [3] (100 μmol/kg s.c.), 121 ± 23 % of control means.

With `Fc1cc(F)c(F)c(OC2CNC2)c1` [Example 2, 3-(2,3,5-trifluorophenoxy)azetidine hydrochloric acid salt], the inhibition at 10 µM in test [1] was found to be 12%. The “DOPAC cortex ± SEM” value in test [2] is recorded as 121 ± 5.6 % of control means. For the same molecule, the “DOPAC striatum ± SEM” value in test [2] was 96 ± 4 % of control means. Besides, the locomotor activity is 66 ± 8** % of control means in test [3] (11 μmol/kg s.c.), 57 ± 5*** % of control means in test [3] (33 μmol/kg s.c.) and 21 ± 5*** % of control means in test [3] (100 μmol/kg s.c.). Also, the “effect on locomotor activity (in words)” value in test [3] (at all tested doses (11, 33, 100 μmol/kg s.c.)) was “significant reduction”.

With `Fc1cc(F)c(F)c(OC2CNC2)c1F` [Example 3, 3-(2,3,5,6-tetrafluorophenoxy)-azetidine hydrochloric acid salt], at 10 µM the inhibition in test [1] was 10%. In test [2], the “DOPAC cortex ± SEM” value was 201 ± 11*** % of control means. For the same molecule, the “DOPAC striatum ± SEM” value in test [2] is on record as 158 ± 3.4*** % of control means. The locomotor activity in test [3] (11 μmol/kg s.c.) is reported as 114 ± 18 % of control means; in test [3] (33 μmol/kg s.c.), 71 ± 26 % of control means; in test [3] (100 μmol/kg s.c.), 44 ± 8* % of control means. Besides, the “effect on locomotor activity (in words)” value in test [3] (at the two highest doses (33, 100 μmol/kg s.c.)) was “significant reduction”.

The molecule `Fc1ccc(F)c(OC2CNC2)c1F` [Example 20, 3-(2,3,6-trifluorophenoxy)azetidine hydrochloric acid salt] registered an inhibition at 10 µM in test [1] of 25%.

With `CCN1CC(Oc2c(F)c(F)cc(F)c2F)C1` [Example 39, 1-ethyl-3-(2,3,5,6-tetrafluorophenoxy)azetidine hydrochloric acid salt], in test [1], at 10 µM the inhibition was 17%. The “DOPAC cortex ± SEM” value in test [2] is given as 191 ± 18** % of control means. Also, in test [2], the “DOPAC striatum ± SEM” value is recorded as 247 ± 13*** % of control means. The locomotor activity is recorded as 132 ± 14 % of control means in test [3] (11 μmol/kg s.c.), 103 ± 18 % of control means in test [3] (33 μmol/kg s.c.) and 78 ± 19 % of control means in test [3] (100 μmol/kg s.c.). Further, in test [3] (setting [4]), the “effect on locomotor activity (in words)” value was “significant reduction”.

Take `Fc1cc(F)cc(OC2CNC2)c1.O=C(O)C(O)C(O)C(=O)O` [Example 52B, 3-(3,5-difluorophenoxy)azetidine (+)-tartaric acid salt]: the “DOPAC cortex ± SEM” value in test [2] is given as 229 ± 4.6*** % of control means. Besides, the “DOPAC striatum ± SEM” value in test [2] is 72 ± 1.7*** % of control means. For the same molecule, the figures for the locomotor activity in test [3] (11 μmol/kg s.c.), in test [3] (33 μmol/kg s.c.) and in test [3] (100 μmol/kg s.c.) were 93 ± 15 % of control means, 30 ± 5* % of control means and 46 ± 8 % of control means, respectively.

As to `Fc1cc(F)cc(OC2CNC2)c1` [Example 52C, 3-(3,5-difluorophenoxy)azetidine hydrochloric acid salt], in test [1], the inhibition at 10 µM turned out to be 25%. For the same molecule, the locomotor activity is given as 128 ± 25 % of control means in test [3] (11 μmol/kg s.c.), 74 ± 24 % of control means in test [3] (33 μmol/kg s.c.) and 73 ± 15 % of control means in test [3] (100 μmol/kg s.c.).

In test [1], `Clc1ccc(OC2CNC2)cc1Cl` [Reference Compound, 3-(3,4-dichlorophenoxy)azetidine hydrochloric acid salt, reference compound] yielded an inhibition at 10 µM of 79% and an IC50 of 3.5 µM. Besides, in test [1] (ratio of IC50 values of Table 6), the “fold more potent than Example 1A at DAT” value worked out at 6 fold. In test [2], the “DOPAC cortex ± SEM” value is reported as 86 ± 5.6 % of control means and the “DOPAC striatum ± SEM” value is 89 ± 2.5 % of control means. Moreover, the locomotor activity in test [3] (11 μmol/kg s.c.) is recorded as 132 ± 10 % of control means. Besides, the locomotor activity in test [3] (33 μmol/kg s.c.) is listed as 108 ± 23 % of control means. The locomotor activity in test [3] (100 μmol/kg s.c.) is reported as 323 ± 50** % of control means. Further, the “effect on locomotor activity (in words)” value in test [3] (setting [4]) is reported as “significant increase”.

In general, inhibition refers to the drop in the measured response relative to a control, in per cent. Low values mean little suppression, high ones strong suppression. One may read the IC50 as the concentration that gives 50% inhibition. Higher therefore signals lower potency.
